According to US20220202827A1, “Enhancement of Melanocyte Migration Using ROCK Inhibitors” (The General Hospital Corporation, priority 2019, published 2022):

What was measured:
Type in all cases: cell-based, human
passage 3 melanocytes [1] = assay: Melanocyte proliferation in co-culture with keratinocytes in TIVA medium (cell counting); settings: 24 h and 48 h
Method: (§1) FIGS. 1A-C. Keratinocytes that survive culture in TWA medium with Y-27632 can enhance melanocyte growth through a paracrine signaling pathway. A. Equal numbers of pure passage 3 melanocytes were plated with TWA medium in 4 groups with addition(s) as indicated: 1) Y-27632 (10 μM) alone (Y in graph), 2) passage 3 keratinocytes alone (K), 3) keratinocytes and Y-27632 (10 μM) (K+Y), and 4) no addition (negative control, con). Relative fold changes in melanocyte proliferation compared to the negative control were determined by counting the number of melanocytes at 24 h and 48 h after plating. B. Conditioned TWA media were obtained from the 4 groups of passage 3 melanocyte cultures in (A) at 48 h after plating. Then, equal numbers of passage 3 melanocytes were plated in 4 groups, each with one of the conditioned medium. Relative fold changes in melanocyte proliferation compared to the negative control were determined by counting the number of melanocytes at 24 h and 48 h after plating. C. […]
(§2) Therefore, we hypothesized that the surviving keratinocytes in TIVA medium with Y-27632 can promote proliferation of melanocytes by secreting growth factors into the medium. […] To identify potential growth factors, quantitative RT-PCR analysis was performed for expression of six factors that have been reported to be secreted by cultured human keratinocytes and could enhance melanocyte growth.

SCF (KITLG) = assay: qRT-PCR analysis of SCF mRNA expression in keratinocytes
Method: as §1, with “B. Conditioned TWA media were obtained from the 4 groups of passage 3 melanocyte cultures in (A) at 48 h after plating. Then, equal numbers of passage 3 melanocytes were plated in 4 groups, each with one of the conditioned medium.” left out, “plating.” for “plating. C.”
FIGS. 2A-E. Y-27632 can increase SCF expression in keratinocytes, which can promote melanocyte growth. […] Relative fold changes in melanocyte proliferation compared to the control medium were determined by counting the numbers of melanocytes. *p<0.05, **p<0.01 compared with the control; #p<0.05 comparing the SCF-treated group with the IgG-treated group.
Total RNA was extracted from cells using a QIAGEN RNeasy Plus Mini Kit (QIAGEN, Hilden, Germany) according to manufacturer's instructions. […] Data were acquired and analyzed with 7500 Fast System SDS software (Life Tedmologies, Grand Island, N.Y., USA). […]

passage 3 melanocytes [2] = assay: Melanocyte proliferation in conditioned K-SFM media from keratinocytes ± Y-27632, ± SCF antibody; settings: K-SFM conditioned 48 h by keratinocytes with Y-27632; melanocytes cultured 48 h
Method: FIGS. 2A-E. Y-27632 can increase SCF expression in keratinocytes, which can promote melanocyte growth. A. RT-PCR analysis of SCF mRNA expression in passage 3 keratinocytes grown in K-SFM with (Y) or without (con) Y-27632 for the indicated times. **p<0.01 comparing Y-treated with the corresponding control group. B. Western blot analysis of SCF protein expression with or without Y-27632 for 24, 48 or 72 h. C. RT-PCR analysis of SCF mRNA expression in keratinocytes grown in K-SFM with increasing concentrations of Y-27632 for 48 h. **p<0.01, ***p<0.005 comparing Y-27632-treated with untreated cells (0). D. gRT-PCR analysis of SCF mRNA expression in keratinocytes grown in K-SFM, 72 h after transfection of ROCK1 and ROCK2 siRNAs individually and together. **p<0.01 when compared with the control cells transfected with scramble siRNA (siCtrl). E. Passage 3 keratinocytes were cultured in K-SFM with or without 1′-27632 for 48 h, and then the conditioned media were collected. […] Relative fold changes in melanocyte proliferation compared to the control medium were determined by counting the numbers of melanocytes. *p<0.05, **p<0.01 compared with the control; #p<0.05 comparing the SCF-treated group with the IgG-treated group. […]

passage 3 melanocytes [3] = assay: Melanocyte proliferation in conditioned TIVA media (cell counting)
Method: as §1, §2

melanocytes = assay: Transwell migration assay of melanocytes
Method: A. Representative images of migrated melanocytes (dark grey) in the transwell migration assay with different conditions as indicated. […] C. The transwell migration assay was performed under the indicated conditions. ROCKi: Rock inhibitor Y-27632 (10 μM), SIKi: SIK inhibitors with different concentrations as indicated.
To test the effect of Y-27632 on melanocyte cell migration, 1×10^5 cells were cultured in the upper chamber of a transwell migration apparatus. The lower chamber was supplemented either with 254 (melanocyte culture medium) without FBS (control) or 254 media plus seeding human keratinocytes (HKC) in the bottom or 254 medium with […] Y-27632 plus seeding keratinocytes in the bottom (Y-27632+HKC) or 254 medium in the presence of 1% FBS. The chambers were incubated for 24 hours at 37° C. After removal of non-migrated cells on top of the filter, cells that had migrated through the membrane were fixed in 4% paraformaldehyde washed and then stained with 0.1% crystal violet (FIG. 3A). The number of cells that had migrated through the membrane was counted in six randomly selected high-power microscopic fields and the average number of cells were shown in FIG. 3B. […]

SCF = assay: Western blot analysis of SCF protein expression in keratinocytes; settings: K-SFM with or without Y-27632 for 24, 48 or 72 h
Method: FIGS. 2A-E. Y-27632 can increase SCF expression in keratinocytes, which can promote melanocyte growth. A. RT-PCR analysis of SCF mRNA expression in passage 3 keratinocytes grown in K-SFM with (Y) or without (con) Y-27632 for the indicated times. **p<0.01 comparing Y-treated with the corresponding control group. B. Western blot analysis of SCF protein expression with or without Y-27632 for 24, 48 or 72 h. C. RT-PCR analysis of SCF mRNA expression in keratinocytes grown in K-SFM with increasing concentrations of Y-27632 for 48 h. **p<0.01, ***p<0.005 comparing Y-27632-treated with untreated cells (0). D. gRT-PCR analysis of SCF mRNA expression in keratinocytes grown in K-SFM, 72 h after transfection of ROCK1 and ROCK2 siRNAs individually and together. **p<0.01 when compared with the control cells transfected with scramble siRNA (siCtrl). […] Relative fold changes in melanocyte proliferation compared to the control medium were determined by counting the numbers of melanocytes. *p<0.05, **p<0.01 compared with the control; #p<0.05 comparing the SCF-treated group with the IgG-treated group.
To test whether Y-27632 can enhance expression of SCF in keratinocytes, we cultured keratinocytes in the keratinocyte culture condition (K-SFM) with or without Y-27632 and measured SCF expression.

primary melanocytes = assay: Yield of primary melanocytes from dissociated epidermis cultured in TIVA ± Y-27632
Method: Foreskin tissues were trimmed to remove the fat layer and then incubated with Dispase solution (2.5 mg/ml in PBS, overnight at 4° C.). On the second day, the epidermis was peeled from the dermis with fine forceps and chopped into small pieces, incubated with 0.05% trypsin for 15-30 min, neutralized with 10% FBS in DMEM, filtered ([…], Millipore), centrifuged, and rinsed with PBS. In the conventional method of melanocyte isolation, the epidermal cells were plated into culture vessels with melanocyte culture medium TIVA (Ham's F12, Mediatech, Inc., Herndon, Va., USA; 10% fetal bovine serum; 1× penicillin/streptomycin/glutamine, Invitrogen, Carlsbad, Calif., USA; 1×10^−4 M 3-isobutyl-1-methyl xanthine (IBMX), Sigma, St Louis, Mo., USA; 50 ng/ml 12-O-tetradecanoyl phorbol-13-acetate (TPA), Sigma; 2 μM Na3VO4; 1×10^−3 M N^6,2′-O-dibutyryladenosine 3′,5′-cyclic monophosphate (dbcAMP), Sigma) (Halaban et al., 2000; Yokoyama et al., 2008). The culture medium was changed once every 2 days until confluency was reached. For the new method, the isolated melanocytes were seeded with TIVA medium plus 10 μM Y-27632 (Y0503, Sigma) for two days, then the culture medium was replaced with standard TIVA without Y-27632 every 2 days, as in the conventional method. […] For isolation of keratinocytes, the dissociated epidermal cells were seeded with keratinocyte culture medium (K-SFM, Gibco/Thermo Fisher Scientific, Waltham, Mass., USA) into culture dishes pretreated with coating matrix containing type-I collagen (Gibco, R-011-K) and the medium was changed every 2 days. In order to understand the role of Y-27632 in promoting melanocyte growth, different media were used in different experiments depending on the experimental needs; information about the medium and protocol used for each experiment is listed in the following table.
To test whether Y-27632 can enhance the yield of primary melanocytes, dissociated cells isolated from epidermis were plated with melanocyte culture medium (TWA) containing 10 μM Y-27632 and incubated for 48 h, and then the medium was replaced with TIVA without Y-27632. […] The differences were significant at 5 or more days after plating, and at 16 days, about 5 times more melanocytes were recovered from Y-27632-treated cultures compared with untreated cultures. We further tested whether longer treatment with Y-27632 had the same effect.

In the case of C[C@@H](N)[C@H]1CC[C@H](C(=O)Nc2ccncc2)CC1.Cl.Cl [Y-27632, (+)-(R)-trans-4-(1-aminoethyl)-N-(4-pyridyl)cyclohexanecarboxamide dihydrochloride], the growth of melanocytes (passage 3 melanocytes [1]; Y-27632 (10 μM) alone, no keratinocytes) is reported as “neither Y-27632 alone nor keratinocytes medium alone could promote the growth of melanocytes”, the melanocyte proliferation (passage 3 melanocytes [1]; keratinocytes and Y-27632 (10 μM) (K+Y)) is reported as “could significantly increase melanocyte proliferation” and the “SCF mRNA level in keratinocytes” value (SCF (KITLG); passage 3 keratinocytes in K-SFM with or without Y-27632) is reported as “can increase both mRNA and protein levels of SCF”. For the same compound, the “expression of six melanocyte growth-enhancing factors (RT-PCR)” value (SCF (KITLG); passage 3 keratinocytes in TIVA+Y-27632, 0-48 h) was “only SCF (KITLG) expression increased significantly”, the “melanocyte growth with conditioned medium” value (passage 3 melanocytes [2]) was “enhancement of melanocyte growth” and the melanocyte proliferation (passage 3 melanocytes [3]; conditioned medium from cultures of keratinocytes in TIVA+Y-27632) was “significantly enhanced melanocyte proliferation”. The melanocyte proliferation (passage 3 melanocytes [3]; conditioned medium from cultures of melanocytes with TIVA and Y-27632 alone) was “did not increase melanocyte proliferation”, the melanocyte migration (melanocytes; ROCKi (10 uM Y-27632), SIKi at different concentrations, alone or combined (FIG. 3C)) was “could enhances melanocyte migration” and the “migration of melanocytes through the membrane” value (melanocytes; lower chamber: 254 medium with 10 μM Y-27632 plus keratinocytes (HKC), 24 hours) was “significantly induced the migration of melanocytes”. The “SCF protein level in keratinocytes” value (SCF) was “can increase both mRNA and protein levels of SCF”, the “melanocytes recovered compared with untreated cultures” value (primary melanocytes; 10 μM Y-27632 for first 48 h, at 16 days) was “about 5 times” and the “duration of treatment generating the highest yield of melanocytes” value (primary melanocytes; continuous treatment with Y-27632, incubation until Day 12) was 4 days. The “yield of melanocytes relative to the untreated group” value (primary melanocytes; continuous treatment with Y-27632 for up to 12 days) was “increased the yield of melanocytes relative to the untreated group” and the “melanocytes observed in treated versus untreated cultures” value (primary melanocytes; dissociated epidermal cells, TIVA with 10 μM Y-27632 for 48 h, then TIVA alone, differences significant at 5 or more days after plating) was “more melanocytes in cultures treated with Y-27632 than in cultures without Y-27632”.
